According to patent publication US8916599B2, “1H-benz imidazole-5-carboxamides as anti-inflammatory agents” (Orexo AB, priority 2008, dated 2014):

These compounds were tested against T1, recombinant human mPGES-1 (Homo sapiens, UniProt O14684) (assay: mPGES-1 inhibition test (microsomes, PGH2 substrate, HTRF detection of PGE2)). Conditions: inhibition of mPGES-1 at 1 μM (marked in cell).
T1 construct: made in house; host or cells: Rosetta E. coli (microsomal/membrane fraction)
T1 sequence (O14684 1-152): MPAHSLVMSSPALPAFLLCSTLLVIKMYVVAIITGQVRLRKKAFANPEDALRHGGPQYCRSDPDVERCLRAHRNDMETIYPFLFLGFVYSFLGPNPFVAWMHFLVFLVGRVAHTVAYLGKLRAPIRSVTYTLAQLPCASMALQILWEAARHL
Format: biochemical
In short: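 E. coli microsomal enzyme, 0.1 M KPi pH 7.4 + 2.5 mM GSH; cpd (DMSO) 25 min RT; PGH2 1 min; acidic FeCl2 stop. Dilute 750-fold, HTRF (d2/Eu-cryptate anti-PGE2, overnight 4 °C), 665/620 ratio vs PGE2 standard curve.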

| inhibition at 1 µM [%] | SMILES |
| --- | --- |
| 100 | O=C(Nc1ccc(F)c(Br)c1)c1ccc2[nH]c(Nc3c(Cl)cccc3Cl)nc2c1 [Example 70, 2-(2,6-Dichloro-phenylamino)-1H-benzimidazole-5-carboxylic acid (3-bromo-4-fluoro-phenyl)-amide] |

Same assay, conditions: inhibition of mPGES-1 at 10 μM

| SMILES | inhibition at 10 µM [%] |
| --- | --- |
| O=C(NC1CCCCCC1)c1ccc2[nH]c(Nc3c(Cl)cccc3Cl)nc2c1 [Example 214, 2-(2,6-Dichloro-phenylamino)-1H-benzimidazole-5-carboxylic acid cycloheptyl-amide] | 100 |
| Cc1ccnc(NC(=O)c2ccc3[nH]c(Nc4c(Cl)cccc4Cl)nc3c2)c1 [Example 116, 2-(2,6-Dichloro-phenylamino)-1H-benzimidazole-5-carboxylic acid (4-methyl-pyridin-2-yl)-amide] | 92 |
| Cn1c(Nc2c(Cl)cccc2Cl)nc2cc(C(=O)Nc3cc(C(F)(F)F)ccn3)c(F)cc21 [Example 130, 2-(2,6-Dichloro-phenylamino)-6-fluoro-1-methyl-1H-benzimidazole-5-carboxylic acid (4-trifluoromethyl-pyridin-2-yl)-amide] | 93 |
| O=C(Nc1nc2c(s1)CCC2)c1ccc2[nH]c(Nc3c(Cl)cccc3Cl)nc2c1 [Example 78, 2-(2,6-Dichloro-phenylamino)-1H-benzimidazole-5-carboxylic acid (5,6-dihydro-4H-cyclopentathiazol-2-yl)-amide] | 90 |
| O=C(N[C@H]1CC[C@@H](C(F)(F)F)CC1)c1cc2nc(Nc3c(Cl)cccc3Cl)[nH]c2cc1F [Example 169, 2-(2,6-Dichloro-phenylamino)-6-fluoro-1H-benzimidazole-5-carboxylic acid (cis-4-trifluoromethyl-cyclohexyl)-amide] | 94 |
| O=C(Nc1ccc(Cl)c(F)c1)c1cc2nc(Nc3c(Cl)cccc3Cl)[nH]c2cc1F [Example 124, 2-(2,6-Dichloro-phenylamino)-6-fluoro-1H-benzimidazol-5-carboxylic acid (4-chloro-3-fluoro-phenyl)-amide] | 98 |
| O=C(Nc1cccc(Cl)c1)c1cc2nc(Nc3c(Cl)cccc3Cl)[nH]c2cc1Cl [Example 56, 2-(2,6-Dichloro-phenylamino)-6-chloro-1H-benzimidazol-5-carboxylic acid (3-chloro-phenyl)-amide] | 100 |
| O=C(Nc1nc2c(s1)CCCC2)c1ccc2[nH]c(Nc3c(Cl)cccc3Cl)nc2c1 [Example 79, 2-(2,6-Dichloro-phenylamino)-1H-benzimidazole-5-carboxylic acid (4,5,6,7-tetrahydro-benzothiazol-2-yl)-amide] | 100 |
| Cn1c(Nc2c(Cl)cccc2Cl)nc2cc(C(=O)NC3COc4ccccc4C3)c(F)cc21 (stereo not drawn) [Example 160, 2-(2,6-Dichloro-phenylamino)-6-fluoro-1-methyl-1H-benzimidazole-5-carboxylic acid chroman-3-ylamide] | 98 |
| Cn1c(Nc2c(Cl)cccc2Cl)nc2cc(C(=O)Nc3cc(Cl)ccn3)c(F)cc21 [Example 129, 2-(2,6-Dichloro-phenylamino)-6-fluoro-1-methyl-1H-benzimidazole-5-carboxylic acid (4-chloro-pyridin-2-yl)-amide] | 92 |
| O=C(NC1Cc2ccccc2C1)c1cc2nc(Nc3c(Cl)cccc3Cl)[nH]c2cc1F [Example 125, 2-(2,6-Dichloro-phenylamino)-6-fluoro-1H-benzimidazol-5-carboxylic acid indan-2-yl-amide] | 100 |
| NCCCn1c(Nc2c(Cl)cccc2Cl)nc2cc(C(=O)Nc3cc(Cl)ccn3)ccc21 [Example 208, 2-(2,6-Dichloro-phenylamino)-1-(3-amino-propyl)-1H-benzimidazole-5-carboxylic acid (4-chloro-pyridin-2-yl)-amide(trifluoro-acetate)] | 100 |
| Cc1nc(NC(=O)c2ccc3[nH]c(Nc4c(Cl)cccc4Cl)nc3c2)ccc1Br [Example 76, 2-(2,6-Dichloro-phenylamino)-1H-benzimidazole-5-carboxylic acid (5-bromo-6-methyl-pyridin-2-yl)-amide] | 97 |
| Cn1c(Nc2c(Cl)cccc2Cl)nc2cc(C(=O)NC3CCC(C)(C)CC3)c(F)cc21 [Example 157, 2-(2,6-Dichloro-phenylamino)-6-fluoro-1-methyl-1H-benzimidazole-5-carboxylic acid (4,4-dimethyl-cyclohexyl)-amide] | 100 |
| Cc1cc2[nH]c(Nc3c(Cl)cccc3Cl)nc2cc1C(=O)NC1CCC(C)(C)CC1 [Example 123, 2-(2,6-Dichloro-phenylamino)-6-methyl-1H-benzimidazol-5-carboxylic acid (4,4-dimethyl-cyclohexyl)-amide] | 95 |
| O=C(NC1CCc2ccccc2C1)c1ccc2nc(Nc3c(Cl)cccc3Cl)[nH]c2c1 (stereo not drawn) [Example 146, 2-(2,6-Dichloro-phenylamino)-3H-benzimidazole-5-carboxylic acid (1,2,3,4-tetrahydro-naphthalen-2-yl)-amide] | 97 |

More lines, now with the values ahead:

| inhibition at 10 µM [%] | SMILES |
| --- | --- |
| 100 | Cn1c(Nc2c(Cl)cccc2Cl)nc2cc(C(=O)NC3CCCC(C)(C)C3)c(F)cc21 (stereo not drawn) [Example 355, 2-(2,6-Dichlorophenylamino)-N-(3,3-dimethylcyclohexyl)-6-fluoro-1-methyl-1H-benzimidazole-5-carboxamide] |
| 99 | COc1cc2c(cc1C(=O)NC1CCC(C)(C)CC1)nc(Nc1c(Cl)ccc(Cl)c1F)n2C [Example 621, 2-(3,6-Dichloro-2-fluoro-phenylamino)-6-methoxy-N-(4,4-dimethyl-cyclohex-1-yl)-1-methyl-1H-benzimidazole-5-carboxamide] |
| 97 | Cc1cc2nc(NC(=O)c3ccc4[nH]c(Nc5c(Cl)cccc5Cl)nc4c3)[nH]c2cc1C [Example 314, 2-(2,6-Dichloro-phenylamino)-1H-benzimidazole-5-carboxylic acid (5,6-dimethyl-1H-benzimidazol-2-yl)-amide] |
| 93 | Cn1c(Nc2c(Cl)cccc2Cl)nc2cc(C(=O)NCc3ccccn3)c(F)cc21 [Example 548, 2-(2,6-Dichlorophenylamino)-6-fluoro-1-methyl-N-(pyridin-2-ylmethyl)-1H-benzimidazole-5-carboxamide] |
| 100 | Cn1c(Nc2c(F)cccc2Cl)nc2cc(C(=O)NC3CCC4(CC3)CC4)c(F)cc21 [Example 384] |
| 100 | COc1cc2[nH]c(Nc3c(Cl)cccc3Cl)nc2cc1C(=O)NCc1ncccc1C1CC1 [Example 407, N-((3-Cyclopropylpyridin-2-yl)-methyl)-2-(2,6-dichlorophenylamino)-6-methoxy-1H-benzimidazole-5-carboxamide] |
| 100 | O=C(Nc1ccc(Br)cc1)c1cc2[nH]c(Nc3c(Cl)cccc3Cl)nc2c(F)c1F [Example 395, N-(4-Bromophenyl)-2-(2,6-dichlorophenylamino)-4,5-difluoro-1H-benzimidazole-6-carboxamide] |
| 100 | Cn1c(Nc2c(F)cccc2Cl)nc2cc(C(=O)NCCCC3CC3)c(F)cc21 [Example 390, 2-(2-Chloro-6-fluorophenylamino)-N-(3-cyclopropylpropyl)-6-fluoro-1-methyl-1H-benzimidazole-5-carboxamide] |
| 100 | O=C(Nc1ccc(Br)cc1)c1cc2nc(Nc3c(F)ccc(F)c3Cl)[nH]c2cc1OCC(F)(F)F [Example 595, 2-(2-Chloro-3,6-difluoro-phenylamino)-N-(4-bromophenyl)-6-(2,2,2-trifluorethoxy)-1H-benzimidazole-5-carboxamide] |
| 99 | O=C(Nc1c(Cl)cc(Cl)cc1Cl)c1ccc2[nH]c(Nc3c(Cl)cccc3Cl)nc2c1 [Example 313, 2-(2,6-Dichloro-phenylamino)-1H-benzimidazole-5-carboxylic acid (2,4,6-trichloro-phenyl)-amide] |
| 97 | O=C(O)CCn1c(Nc2c(Cl)cccc2Cl)nc2cc(C(=O)Nc3cc(Cl)ccn3)ccc21 [Example 265, 2-(2,6-Dichloro-phenylamino)-1-(propionic acid)-1H-benzimidazole-5-carboxylic acid (4-chloro-pyridin-2-yl)-amide] |
| 74 | O=C(NCc1ccc(C(F)(F)F)cn1)c1ccc2[nH]c(Nc3c(Cl)cccc3Cl)nc2c1 [Example 222, 2-(2,6-Dichloro-phenylamino)-1H-benzimidazole-5-carboxylic acid (5-trifluoromethyl-pyridin-2-ylmethyl)-amide] |
| 96 | O=C(N[C@H]1CC[C@H](C(F)(F)F)CC1)c1cc2nc(Nc3c(Cl)cc(F)cc3Cl)[nH]c2cc1OCCF [Example 584, 2-(2,6-Dichloro-4-fluoro-phenylamino)-N-(trans-4-trifluoro-cyclohex-1-yl)-6-(2-fluoroethoxy)-1H-benzimidazole-5-carboxamide] |
| 91 | O=C(NC1CCCC(C(F)(F)F)C1)c1ccc2[nH]c(Nc3c(Cl)cccc3Cl)nc2c1 (stereo not drawn) [Example 229, 2-(2,6-Dichloro-phenylamino)-1H-benzimidazole-5-carboxylic acid (3-trifluoromethyl-cyclohexyl)-amide] |
| 96 | O=C(Nc1cc(Cl)ccn1)c1ccc2c(c1)nc(Nc1c(Cl)cccc1Cl)n2CC(=O)N1CCOCC1 [Example 275, 2-(2,6-Dichloro-phenylamino)-1-(2-morpholin-4-yl-2-oxo-ethyl)-1H-benzimidazole-5-carboxylic acid (4-chloro-pyridin-2-yl)-amide] |
| 90 | O=C(Nc1cc(Cl)ccn1)c1ccc2c(c1)nc(Nc1c(Cl)cccc1Cl)n2CCC(=O)N1CCOCC1 [Example 264, 2-(2,6-Dichloro-phenylamino)-1-(3-morpholin-4-yl-3-oxo-propyl)-1H-benzimidazole-5-carboxylic acid (4-chloro-pyridin-2-yl)-amide] |
